Reference: US20080269161A1, “Compositions and Methods Relating to Mitochondrial Hyperpolarization in Neurological Disease” (priority 2005, published 2008)
Entries after “also recorded” stand apart in the source; their conditions may differ.

Test system: CA1 pyramidal neurons in hippocampal slices
Set-up: species or system rodent
Method: CA1 pyramidal neurons were exposed to 1 μM cPAF or vehicle for 30-60min and simultaneously imaged and recorded by whole-cell patch clamp before and after delivery of a high-frequency stimulus (HFS: three 1s, 100 Hz trains, every 20 s) applied to Schaffer collateral axons via a bipolar stimulating electrode planted in the stratum radiatum. (A) Dendrite beading in a cPAF-exposed cell 45min after HFS, with no disruption of dendrite or spine morphology in control cells. […] (C) Excitatory synaptic transmission between Shaffer collateral axons and CA1 pyramidal neurons is strongly potentiated following HFS in control slices. […] (EPSP traces at baseline and 40 min from representative control cell and cPAF-treated beaded cell are at right.) […]
Explant hippocampal slices are exposed to HIV-1 neurotoxins±agents that reverse mitochondrial hyperpolarization. Beading and LTP are then be measured:
Hippocampal slice preparation: Brains from anesthetized P14-28 rodents are rapidly removed and cooled in sucrose based artificial cerebrospinal fluid (ACSF) containing in mM: 110 sucrose, 60 NaCl, 3 KCl, 1.25 NaH2PO4, 28 NaHCO3, 10 D-glucose, 0.5 CaCl2, 7 MgSO4, 0.6 ascorbate. The brains are blocked and fixed to a specimen stage with cyanoacrylate. Coronal slices (250-400 μm in thickness) are cut with a vibroslicer (World Precision Instruments, Fla., USA) equipped with a Peltier cooling system. The middle four to six slices of each hippocampus (with the entorhinal cortex removed) are placed into a holding chamber prior to use.
Measuring dendritic beading and postsynaptic potentials in single CA1 cells in hippocampal slices: Dendritic arbors of individual CA1 pyramidal cells are imaged while simultaneously recording excitatory postsynaptic potentials in the same cell by patch clamp recordings in whole-cell configuration. Recording pipettes ([…] resistance) are pulled from 1.5 mm borosilicate glass using a horizontal Flaming/Brown micropipette puller (Sutter Instrument Co, Calif.), fire-polished, and filled with intracellular recording solution (in mM: KCl 20, potassium gluconate 130, EGTA 0.5, HEPES 10, MgSO4 2, ATP 2.5, GTP 0.5, pH 7.3). In order to visualize dendrites of the recorded cell, Alexa 568 hydrazide (30 μM) is included in the recording pipette and is injected by small negative current pulses for 15-20 min prior to recording in order to fill the dendritic arbor. Hippocampal slices are bathed in artificial CSF (containing, in mM: NaCl 125, KCl 2.5, NaH2PO4 1.25, NaHCO3 25, CaCl2 2, MgCl2 1, D-glucose 25, oxygenated and buffered with 5% CO2). Membrane potentials of CA1 pyramidal cells are recorded in current clamp mode, and postsynaptic potentials are evoked by test pulses of constant-current stimulation applied via a bipolar stimulating electrode placed 50-200 μm away in the stratum radiatum. Bicuculline (10 μM) is included in the bath to isolate excitatory postsynaptic potentials. After at least 10 min of consistent baseline recording, a high-frequency LTP induction stimulus (HFS, consisting of four 1 s, 100 Hz trains delivered every 15 s) is applied. EPSPs are recorded for 60 min following HFS. At the same time, dendrites are imaged at 40× magnification by fluorescence microscopy, using a shutter to limit fluorescent light exposure and prevent phototoxic injury to the slice. Serial images of dendrites are compared to detect development of focal swellings along dendritic shafts following HFS. Cells are scored as beaded if swellings develop along any of their dendrites.
Field potential recording and induction of LTP in hippocampal slices: Single-cell recordings are complemented by extracellular field potential recordings: while single cell recordings allow correlation of electrophysiologic data with dendritic beading in the same cell, extracellular recordings sample responses from populations of dendrites and are less invasive. […]

[1] = HIV-1 neurotoxin with vehicle treatment

## CCCCCCCCCCCCCCCCOC[C@H](COP(=O)([O-])OCC[N+](C)(C)C)OC(=O)NC [PAF, carbamyl-platelet-activating factor]
1 μM cPAF, 30-60 min
  cells with beading elicited by HFS: half of the cells
  potentiation of EPSPs after HFS, cells that did not develop dendrite beading: smaller potentiation
  potentiation of EPSPs after HFS, cells whose dendrites did bead: failure of long-term potentiation; also recorded: not potentiated at all
[1]
  Beading Prediction: Occurs
  LTP Prediction: Failure
  Δψm: Hyperpolarized
